pIC50: −log10 of the molar value. Where a name gives a salt, the structure may show the parent alone. Read-outs that look alike come from different tables or passages of the source.

For this experiment, the system named is HCT116 cells. Put plainly: HCT116 cytotoxic activity assay. It is filed as cell-based. The note with it: Homo sapiens, HCT-116, 72 h with compound, Alamar Blue readout.
[1] abbreviates: read-out: IC50 in the HCT116 cytotoxic activity assay.
The mark [2] stands for this setting: read-out: IC50 in the HCT116 cytotoxic activity assay (upper bound of the class >500 nM).

Description: Human tumor cells, e.g., HCT116 cells, are seeded in a 96-well plate at 3.0×10^3 cells/well and grown in 100 μl of RPMI complete media (Invitrogen Corporation, Grand Island, N.Y.) containing 10% fetal bovine serum (Hyclone, Logan, Utah) and 10 mM HEPES and at 37° C. for 16 h in an incubator with 5% CO2. To each well, 50 μl of additional growth media containing 20 μM to 60 nM concentrations of compound with 0.2% DMSO is added. Cells are grown for another 72 h at 37° C. 20 μl of Alamar Blue (Trek Diagnostic Systems, Inc., Cleveland, Ohio) reagent is added to each well and incubated for 4 h at 37° C. Plates are read in a SpectraMax Gemini (Molecular Devices, CA) with 544 nm excitation and 590 nm emission wavelength. IC50 values are determined by linear regression analysis of log drug concentration versus percent inhibition.

In general, pIC50 refers to −log10 of the IC50, conventionally taken in molar units. With `Nc1nc(CCCO)cc(Nc2ccc(Oc3ccnc(C(F)(F)F)c3)cc2)n1` [Example 16, 4-{2-amino-6-[(4-{[2-(trifluoromethyl)pyridin-4-yl]oxy}phenyl)amino]pyrimidin-4-yl}propan-1-ol], under setting [1], the pIC50 is at least 6.30.

Regarding `Cc1cc(Oc2ccc(Nc3cc(/C=C/c4ccccc4)nc(N)n3)cc2)ccn1` [Example 41, N^4-{4-[(2-methylpyridin-4-yl)oxy]phenyl}-6-[(E)-2-phenylvinyl]-pyrimidine-2,4-diamine], the pIC50 under setting [1] was at least 6.30. On the same count and under the same terms, in the case of `Nc1nc(CCCCO)cc(Nc2ccc(Oc3ccnc(C(F)(F)F)c3)cc2)n1` [Example 15, 4-{2-amino-6-[(4-{[2-(trifluoromethyl)pyridin-4-yl]oxy}phenyl)amino]pyrimidin-4-yl}butan-1-ol] it was at least 6.30. For `Nc1nc(CCc2cccc(O)c2)cc(Nc2ccc(Oc3ccnc(C(F)(F)F)c3)cc2)n1` [Example 35, 3-(2-{2-amino-6-[(4-{[2-(trifluoromethyl)pyridin-4-yl]oxy}phenyl)-amino]pyrimidin-4-yl}ethyl)phenol], the negative logarithm of the IC50 (pIC50) under setting [1] was below 6.30 and the negative logarithm of the IC50 (pIC50) under setting [2] was at least 5.00. As to `Nc1nc(/C=C/CCO)cc(Nc2ccc(Oc3ccnc(C(F)(F)F)c3)cc2)n1` [Example 8, (3E)-4-[2-amino-6-[(4-{[2-(trifluoromethyl)pyridin-4-yl]oxy}phenyl)amino]pyrimidin-4-yl]but-3-en-1-ol], under setting [1], the pIC50 is at least 6.30. As to `NCCCc1cc(Nc2ccc(Oc3ccnc(C(F)(F)F)c3)cc2)nc(N)n1` [Example 14, 6-(3-aminopropyl)-N^4-(4-{[2-(trifluoromethyl)pyridin-4-yl]oxy}phenyl)pyrimidine-2,4-diamine hydrochloride], the pIC50 is, setting by setting: under setting [1], below 6.30; under setting [2], at least 5.00. Taken in the same sequence, the figures for `Nc1nc(CCC(O)CO)cc(Nc2ccc(Oc3ccnc(C(F)(F)F)c3)cc2)n1` (stereo not drawn) [Example 17, 4-{2-amino-6-[(4-{[2-(trifluoromethyl)pyridin-4-yl]oxy}phenyl)amino]pyrimidin-4-yl}butane-1,2-diol] were below 6.30 and at least 5.00. Turning to `Nc1nc(/C=C/c2ccc(F)cc2)cc(Nc2ccc(Oc3ccnc(C(F)(F)F)c3)cc2)n1` [Example 5, 6-[(E)-2-(4-fluorophenyl)vinyl]-N^4-(4-{[2-(trifluoromethyl)pyridin-4-yl]oxy}phenyl)pyrimidine-2,4-diamine], the negative logarithm of the IC50 (pIC50) under setting [1] was at least 6.30.

On to `COc1cccc(CCc2cc(Nc3ccc(Oc4ccnc(C(F)(F)F)c4)cc3)nc(N)n2)c1` [Example 31, 6-[2-(3-methoxyphenyl)ethyl]-N4-(4-{[2-(trifluoromethyl)pyridin-4-yl]oxy}phenyl)pyrimidine-2,4-diamine], for which, under setting [1], the pIC50 is at least 6.30. Still for that read-out and setting: in the case of `N#Cc1cc(Oc2ccc(Nc3cc(/C=C/c4ccc(F)cc4)nc(N)n3)cc2)ccn1` [Example 3, 4-[4-({2-amino-6-[(E)-2-(4-fluorophenyl)vinyl]pyrimidin-4-yl}amino)phenoxy]pyridine-2-carbonitrile] it was at least 6.30. As to `Nc1nc(C#Cc2ccc(F)cc2)cc(Nc2ccc(Oc3ccnc(C(F)(F)F)c3)cc2)n1` [Example 22, 6-[(4-fluorophenyl)ethynyl]-N^4-(4-{[2-(trifluoromethyl)pyridin-4-yl]oxy}phenyl)pyrimidine-2,4-diamine], the pIC50 under setting [1] was at least 6.30.

With `Nc1ccc(/C=C/c2cc(Nc3ccc(Oc4ccnc(C(F)(F)F)c4)cc3)nc(N)n2)cc1` [Example 39A, 6-[(E)-2-(4-aminophenyl)vinyl]-N^4-(4-{[2-(trifluoromethyl)pyridin-4-yl]oxy}phenyl)pyrimidine-2,4-diamine trifluoroacetate], the pIC50 runs as follows: under setting [1], below 6.30; under setting [2], at least 5.00. In the case of `Nc1ccc(CCc2cc(Nc3ccc(Oc4ccnc(C(F)(F)F)c4)cc3)nc(N)n2)cc1` [Example 40, 6-[2-(4-aminophenyl)ethyl]-N^4-(4-{[2-(trifluoromethyl)pyridin-4-yl]oxy}phenyl)pyrimidine-2,4-diamine trifluoroacetate], under setting [1], the pIC50 is at least 6.30. Take `CC(O)c1cc(Nc2ccc(Oc3ccnc(C(F)(F)F)c3)cc2)nc(N)n1` (stereo not drawn) [Example 2, 1-{2-amino-6-[(4-{[2-(trifluoromethyl)pyridin-4-yl]ox-}phenyl)amino]pyrimidin-4-yl}ethanol]: the negative-log IC50 (pIC50) under setting [1] was below 6.30 and the negative-log IC50 (pIC50) under setting [2] was at least 5.00. As to `C=C(OCC)c1cc(Nc2ccc(Oc3ccnc(C(F)(F)F)c3)cc2)nc(N)n1` [Example 1, 6-(1-ethoxyvinyl)-N^4-(4-{[2-(trifluoromethyl)pyridin-4-yl]oxy}phenyl)pyrimidine-2,4-diamine], the negative-log IC50 (pIC50) is, setting by setting: under setting [1], below 6.30; under setting [2], at least 5.00.

Take `Nc1nc(CCc2ccc(F)cc2)cc(Nc2ccc(Oc3ccnc(C(F)(F)F)c3)cc2)n1` [Example 29, 6-[2-(4-fluorophenyl)ethyl]-N^4-(4-{[2-(trifluoromethyl)pyridin-4-yl]oxy}phenyl)pyrimidine-2,4-diamine]: the negative logarithm of the IC50 (pIC50) under setting [1] is at least 6.30. For `Nc1ccc(/C=C\c2cc(Nc3ccc(Oc4ccnc(C(F)(F)F)c4)cc3)nc(N)n2)cc1` [Example 39B, 6-[(Z)-2-(4-aminophenyl)vinyl]-N^4-(4-{[2-(trifluoromethyl)pyridin-4-yl]oxy}phenyl)pyrimidine-2,4-diamine trifluoroacetate], the pIC50 runs as follows: under setting [1], below 6.30; under setting [2], at least 5.00.

For the origin of these results see patent publication US20090258888A1, “Pyrimidine Derivatives” (Bayer Pharmaceuticals Corporation, priority 2005, published 2009).
